# In PubChem BioAssay (NCI):
#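 GI50 is the concentration that inhibits growth by half. TGI denotes the concentration required for complete inhibition of growth.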
# Key:
# Assay in all cases: NCI tumour cell line growth inhibition, 384-well format
# HOP-92 NSCLC = system: HOP-92 NSCLC
# HT29 colon = system: HT29 colon
# SNB-19 CNS = system: SNB-19 CNS
# NCI/ADR-RES ovarian = system: NCI/ADR-RES ovarian
# NCI-H522 lung = system: NCI-H522 lung
# SF-539 CNS = system: SF-539 CNS
# HL-60(TB) leukemia = system: HL-60(TB) leukemia
# SW-620 colon = system: SW-620 colon
# A498 renal = system: A498 renal
# RPMI-8226 leukemia = system: RPMI-8226 leukemia
# SK-OV-3 ovarian = system: SK-OV-3 ovarian
# EKVX NSCLC = system: EKVX NSCLC
# SR leukemia = system: SR leukemia
# OVCAR-8 ovarian = system: OVCAR-8 ovarian
# K-562 leukemia = system: K-562 leukemia
# NCI-H226 lung = system: NCI-H226 lung
# LOX IMVI melanoma = system: LOX IMVI melanoma
# KM12 colon = system: KM12 colon
# RXF 393 renal = system: RXF 393 renal
# ACHN renal = system: ACHN renal
# OVCAR-5 ovarian = system: OVCAR-5 ovarian
# A549 NSCLC = system: A549 NSCLC
# UO-31 renal = system: UO-31 renal
# SN12C renal = system: SN12C renal
# COLO 205 colon = system: COLO 205 colon
# MOLT-4 leukemia = system: MOLT-4 leukemia
# DU-145 prostate = system: DU-145 prostate
# HCT-15 colon = system: HCT-15 colon
# MDA-MB-468 breast = system: MDA-MB-468 breast
# HS 578T breast = system: HS 578T breast
# TK-10 renal = system: TK-10 renal
# HCC-2998 colon = system: HCC-2998 colon
# CCRF-CEM leukemia = system: CCRF-CEM leukemia
# IGROV1 ovarian = system: IGROV1 ovarian
# PC-3 prostate = system: PC-3 prostate
# HOP-62 NSCLC = system: HOP-62 NSCLC
# NCI-H460 NSCLC = system: NCI-H460 NSCLC
# OVCAR-4 ovarian = system: OVCAR-4 ovarian
# U251 glioblastoma = system: U251 glioblastoma
# SK-MEL-5 melanoma = system: SK-MEL-5 melanoma
# 786-0 renal = system: 786-0 renal
# CAKI-1 renal = system: CAKI-1 renal
# HCT-116 colon = system: HCT-116 colon
# MDA-MB-435 melanoma = system: MDA-MB-435 melanoma
# MDA-MB-231 breast = system: MDA-MB-231 breast
# UACC-257 melanoma = system: UACC-257 melanoma
# SNB-75 CNS = system: SNB-75 CNS
# NCI-H322M lung = system: NCI-H322M lung
# M14 melanoma = system: M14 melanoma
# MCF7 breast = system: MCF7 breast
# SK-MEL-28 melanoma = system: SK-MEL-28 melanoma
# T-47D breast = system: T-47D breast
# MALME-3M melanoma = system: MALME-3M melanoma
# OVCAR-3 ovarian = system: OVCAR-3 ovarian
# BT-549 breast = system: BT-549 breast
# SF-268 CNS = system: SF-268 CNS
# SF-295 CNS = system: SF-295 CNS
# NCI-H23 lung = system: NCI-H23 lung
structure (smiles),measurement,setting,value
O=C(Nc1cccc2cccnc12)c1ccc(N2C(=O)[C@@H]3[C@H](C2=O)[C@@H]2C=C[C@H]3C2)cc1,GI50,HOP-92 NSCLC,43.7 µM
same,TGI,HOP-92 NSCLC,> 100 µM
same,GI50,HT29 colon,14.4 µM
same,TGI,HT29 colon,29.8 µM
same,GI50,SNB-19 CNS,27.2 µM
same,TGI,SNB-19 CNS,> 100 µM
same,GI50,NCI/ADR-RES ovarian,12 µM
same,TGI,NCI/ADR-RES ovarian,26.7 µM
same,GI50,NCI-H522 lung,16.4 µM
same,TGI,NCI-H522 lung,32.8 µM
same,GI50,SF-539 CNS,49.1 µM
same,TGI,SF-539 CNS,> 100 µM
same,GI50,HL-60(TB) leukemia,12.3 µM
same,TGI,HL-60(TB) leukemia,24.9 µM
same,GI50,SW-620 colon,44.9 µM
same,TGI,SW-620 colon,> 100 µM
same,GI50,A498 renal,25.9 µM
same,TGI,A498 renal,> 100 µM
same,GI50,RPMI-8226 leukemia,21 µM
same,TGI,RPMI-8226 leukemia,36.5 µM
same,GI50,SK-OV-3 ovarian,57.2 µM
same,TGI,SK-OV-3 ovarian,> 100 µM
same,GI50,EKVX NSCLC,25.5 µM
same,TGI,EKVX NSCLC,> 100 µM
same,GI50,SR leukemia,13.5 µM
same,TGI,SR leukemia,32.9 µM
same,GI50,OVCAR-8 ovarian,27.8 µM
same,TGI,OVCAR-8 ovarian,94.6 µM
same,GI50,K-562 leukemia,11.6 µM
same,TGI,K-562 leukemia,25.9 µM
same,GI50,NCI-H226 lung,18 µM
same,TGI,NCI-H226 lung,50 µM
same,GI50,LOX IMVI melanoma,32.5 µM
same,TGI,LOX IMVI melanoma,89.6 µM
same,GI50,KM12 colon,32.3 µM
same,TGI,KM12 colon,> 100 µM
same,GI50,RXF 393 renal,0.907 µM
same,TGI,RXF 393 renal,24.6 µM
same,GI50,ACHN renal,45.1 µM
same,TGI,ACHN renal,> 100 µM
same,GI50,OVCAR-5 ovarian,56.8 µM
same,TGI,OVCAR-5 ovarian,> 100 µM
same,GI50,A549 NSCLC,32.2 µM
same,TGI,A549 NSCLC,> 100 µM
same,GI50,UO-31 renal,20.1 µM
same,TGI,UO-31 renal,> 100 µM
same,GI50,SN12C renal,47.8 µM
same,TGI,SN12C renal,> 100 µM
same,GI50,COLO 205 colon,37.6 µM
same,TGI,COLO 205 colon,> 100 µM
same,GI50,MOLT-4 leukemia,16 µM
same,TGI,MOLT-4 leukemia,29.8 µM
same,GI50,DU-145 prostate,26.2 µM
same,TGI,DU-145 prostate,> 100 µM
same,GI50,HCT-15 colon,26.1 µM
same,TGI,HCT-15 colon,98.2 µM
same,GI50,MDA-MB-468 breast,3.84 µM
same,TGI,MDA-MB-468 breast,23.6 µM
same,GI50,HS 578T breast,29.3 µM
same,TGI,HS 578T breast,93.7 µM
same,GI50,TK-10 renal,28.7 µM
same,TGI,TK-10 renal,> 100 µM
same,GI50,HCC-2998 colon,20.1 µM
same,TGI,HCC-2998 colon,41.6 µM
same,GI50,CCRF-CEM leukemia,16.8 µM
same,TGI,CCRF-CEM leukemia,42.3 µM
same,GI50,IGROV1 ovarian,32.5 µM
same,TGI,IGROV1 ovarian,> 100 µM
same,GI50,PC-3 prostate,26 µM
same,TGI,PC-3 prostate,70.4 µM
same,GI50,HOP-62 NSCLC,21.7 µM
same,TGI,HOP-62 NSCLC,74.7 µM
same,GI50,NCI-H460 NSCLC,20.5 µM
same,TGI,NCI-H460 NSCLC,43.5 µM
same,GI50,OVCAR-4 ovarian,21.6 µM
same,TGI,OVCAR-4 ovarian,> 100 µM
same,GI50,U251 glioblastoma,19.4 µM
same,TGI,U251 glioblastoma,> 100 µM
same,GI50,SK-MEL-5 melanoma,18.1 µM
same,TGI,SK-MEL-5 melanoma,32.7 µM
same,GI50,786-0 renal,21 µM
same,TGI,786-0 renal,59.9 µM
same,GI50,CAKI-1 renal,28.4 µM
same,TGI,CAKI-1 renal,> 100 µM
same,GI50,HCT-116 colon,38.3 µM
same,TGI,HCT-116 colon,> 100 µM
same,GI50,MDA-MB-435 melanoma,46.3 µM
same,TGI,MDA-MB-435 melanoma,> 100 µM
same,GI50,MDA-MB-231 breast,36.3 µM
same,TGI,MDA-MB-231 breast,> 100 µM
same,GI50,UACC-257 melanoma,36.2 µM
same,TGI,UACC-257 melanoma,> 100 µM
same,GI50,SNB-75 CNS,30 µM
same,TGI,SNB-75 CNS,98.5 µM
same,GI50,NCI-H322M lung,42 µM
same,TGI,NCI-H322M lung,> 100 µM
same,GI50,M14 melanoma,43.5 µM
same,TGI,M14 melanoma,> 100 µM
same,GI50,MCF7 breast,22.9 µM
same,TGI,MCF7 breast,> 100 µM
same,GI50,SK-MEL-28 melanoma,54.5 µM
same,TGI,SK-MEL-28 melanoma,> 100 µM
same,GI50,T-47D breast,13 µM
same,TGI,T-47D breast,27.1 µM
same,GI50,MALME-3M melanoma,27.3 µM
same,TGI,MALME-3M melanoma,88 µM
same,GI50,OVCAR-3 ovarian,25.3 µM
same,TGI,OVCAR-3 ovarian,> 100 µM
same,GI50,BT-549 breast,12.6 µM
same,TGI,BT-549 breast,30.5 µM
same,GI50,SF-268 CNS,41.2 µM
same,TGI,SF-268 CNS,> 100 µM
same,GI50,SF-295 CNS,17.7 µM
same,TGI,SF-295 CNS,57.4 µM
same,GI50,NCI-H23 lung,16.9 µM
same,TGI,NCI-H23 lung,42.6 µM
